“Also recorded” adds a separate entry of the source. Where two headings read alike, the source gives them in different places. Residues, ends and D or L forms follow the SMILES beside them. *: point of attachment. Cbz = O=C(OCc1ccccc1)*
What was measured:
SU‐DHL‐10 cells = assay: MTT proliferation assay, SU‐DHL‐10; type: cell-based; conditions: for IC50: Homo sapiens, n = 2, read-out: IC50 (cell proliferation)
Description: (§1) Lymphoma cell lines were exposed to a large range of concentrations of each compound as single agent for 24 h or 72 h, followed by MTT and after 4 h SDS to stop the reaction. The day after, plates were read using a Cytation 3 plate reader (Biotek) and IC50s were calculated. DMSO was used as a control (untreated). IC50 is defined as the drug concentration giving 50% of proliferating cells compared to vehicle treated cells. IC50 was calculated by fitting the values via nonlinear regression (GraphPad Prism 8.0). Values represent mean ± S.D.

H3K27 acetylation = assay: Western blot of H3K27ac levels in SU‐DHL‐10 cells; type: cell-based; conditions: 24 h
CBP [1] = target: T1, CBP (Homo sapiens, UniProt Q92793); assay: Western blot of CBP levels in SU‐DHL‐10 cells; type: cell-based; set-up: WB analysis of CBP levels in the DLBCL SU‐DHL‐10 cell line; endogenous in cells; host or cells: SU-DHL-10
T1 sequence (Q92793 whole entry): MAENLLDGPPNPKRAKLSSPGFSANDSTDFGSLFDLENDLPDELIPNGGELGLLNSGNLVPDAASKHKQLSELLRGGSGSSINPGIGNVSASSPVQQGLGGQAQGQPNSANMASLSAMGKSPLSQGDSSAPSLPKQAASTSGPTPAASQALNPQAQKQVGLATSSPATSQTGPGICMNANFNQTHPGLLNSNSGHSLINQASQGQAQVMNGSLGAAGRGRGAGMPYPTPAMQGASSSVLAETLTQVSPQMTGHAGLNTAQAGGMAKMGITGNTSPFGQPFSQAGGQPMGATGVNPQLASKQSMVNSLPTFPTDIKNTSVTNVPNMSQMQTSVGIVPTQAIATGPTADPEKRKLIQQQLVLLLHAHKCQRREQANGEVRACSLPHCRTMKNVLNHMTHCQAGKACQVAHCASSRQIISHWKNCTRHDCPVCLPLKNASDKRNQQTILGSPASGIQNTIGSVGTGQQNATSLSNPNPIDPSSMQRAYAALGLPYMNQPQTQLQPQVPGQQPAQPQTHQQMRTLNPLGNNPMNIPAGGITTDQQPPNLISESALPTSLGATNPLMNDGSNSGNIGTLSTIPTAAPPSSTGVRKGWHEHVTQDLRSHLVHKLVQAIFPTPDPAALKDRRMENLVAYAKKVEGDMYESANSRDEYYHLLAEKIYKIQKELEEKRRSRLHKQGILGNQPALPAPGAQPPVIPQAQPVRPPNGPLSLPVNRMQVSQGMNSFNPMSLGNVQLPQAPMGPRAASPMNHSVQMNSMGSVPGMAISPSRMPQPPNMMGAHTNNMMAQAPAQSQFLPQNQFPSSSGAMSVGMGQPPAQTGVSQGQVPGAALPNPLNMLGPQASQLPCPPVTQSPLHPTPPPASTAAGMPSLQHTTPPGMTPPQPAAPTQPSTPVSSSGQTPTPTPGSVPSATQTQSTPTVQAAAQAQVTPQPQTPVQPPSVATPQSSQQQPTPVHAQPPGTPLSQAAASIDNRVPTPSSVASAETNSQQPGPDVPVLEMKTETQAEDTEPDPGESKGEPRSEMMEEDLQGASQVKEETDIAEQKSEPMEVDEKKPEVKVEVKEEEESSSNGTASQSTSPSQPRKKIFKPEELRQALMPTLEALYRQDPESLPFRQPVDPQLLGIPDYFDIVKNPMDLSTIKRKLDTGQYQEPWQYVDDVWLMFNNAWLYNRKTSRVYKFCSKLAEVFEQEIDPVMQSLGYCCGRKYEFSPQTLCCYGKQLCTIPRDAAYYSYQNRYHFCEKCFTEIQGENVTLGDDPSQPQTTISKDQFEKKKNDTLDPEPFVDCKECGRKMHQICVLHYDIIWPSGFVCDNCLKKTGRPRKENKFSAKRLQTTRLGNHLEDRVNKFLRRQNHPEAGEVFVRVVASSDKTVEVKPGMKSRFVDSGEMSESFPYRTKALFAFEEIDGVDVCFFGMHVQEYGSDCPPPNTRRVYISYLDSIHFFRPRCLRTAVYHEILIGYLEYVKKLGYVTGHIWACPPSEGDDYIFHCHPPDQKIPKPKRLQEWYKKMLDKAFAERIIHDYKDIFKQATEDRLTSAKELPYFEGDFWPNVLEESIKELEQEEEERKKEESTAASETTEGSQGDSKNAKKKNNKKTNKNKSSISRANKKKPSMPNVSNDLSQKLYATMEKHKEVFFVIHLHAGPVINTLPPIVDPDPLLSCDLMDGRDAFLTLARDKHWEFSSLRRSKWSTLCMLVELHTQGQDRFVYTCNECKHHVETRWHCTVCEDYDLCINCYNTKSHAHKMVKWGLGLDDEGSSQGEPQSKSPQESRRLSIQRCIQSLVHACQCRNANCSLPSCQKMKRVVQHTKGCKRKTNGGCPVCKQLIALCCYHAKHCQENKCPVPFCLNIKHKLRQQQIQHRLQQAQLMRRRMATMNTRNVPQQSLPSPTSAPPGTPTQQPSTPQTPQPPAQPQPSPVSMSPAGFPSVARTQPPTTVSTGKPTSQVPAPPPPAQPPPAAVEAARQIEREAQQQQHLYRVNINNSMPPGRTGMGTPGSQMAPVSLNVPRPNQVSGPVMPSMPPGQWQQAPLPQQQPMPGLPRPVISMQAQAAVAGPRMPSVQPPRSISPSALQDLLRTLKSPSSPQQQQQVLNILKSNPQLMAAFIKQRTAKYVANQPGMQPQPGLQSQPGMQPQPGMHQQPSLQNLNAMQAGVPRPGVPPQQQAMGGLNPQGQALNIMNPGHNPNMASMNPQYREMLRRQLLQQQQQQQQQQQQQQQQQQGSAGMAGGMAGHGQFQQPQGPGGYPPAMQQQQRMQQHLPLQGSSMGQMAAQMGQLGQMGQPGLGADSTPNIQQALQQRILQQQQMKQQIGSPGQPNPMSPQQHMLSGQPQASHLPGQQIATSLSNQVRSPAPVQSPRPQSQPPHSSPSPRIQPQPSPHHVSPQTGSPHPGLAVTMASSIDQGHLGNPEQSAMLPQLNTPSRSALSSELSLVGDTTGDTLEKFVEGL
Description: (§2) Following compound treatment for the indicated time frame (4 to 24 h), cells were solubilized, and the protein content was determined using the BCA protein assay (Pierce Chemical Co). Lysates were fractionated by SDS–polyacrylamide gel electrophoresis (SDS‐PAGE). Membranes were incubated with anti‐CBP (CBP (D6C5) Rabbit mAb #7389, Cell Signaling Technology), anti‐p300 (Anti‐KAT3B/p300 antibody (3G230), Abcam) or anti‐GAPDH (GAPDH Monoclonal Antibody (FF26A), Thermo Fisher Scientific) antibodies overnight. This was followed by incubation with the appropriate horseradish peroxidase‐conjugated anti‐mouse or anti‐rabbit secondary antibodies (Cytiva Europe) for 1 h. Enhanced chemiluminescence detection was then done following the manufacturer's instructions. GAPDH was used as a loading control. Images were quantified with the internal software of the Fusion Solo S (Vilber).

TMD8 = assay: MTT proliferation assay, TMD8; type: cell-based; conditions: Homo sapiens, TMD8, 72 h treatment, n = 2, read-out: IC50 (cell proliferation)
Description: as §1

p300 [2] = target: T2, p300 (Homo sapiens, UniProt Q09472); assay: p300 catalytic activity inhibition; type: biochemical; conditions: means ± S.D., n = 3
T2 sequence (Q09472 whole entry): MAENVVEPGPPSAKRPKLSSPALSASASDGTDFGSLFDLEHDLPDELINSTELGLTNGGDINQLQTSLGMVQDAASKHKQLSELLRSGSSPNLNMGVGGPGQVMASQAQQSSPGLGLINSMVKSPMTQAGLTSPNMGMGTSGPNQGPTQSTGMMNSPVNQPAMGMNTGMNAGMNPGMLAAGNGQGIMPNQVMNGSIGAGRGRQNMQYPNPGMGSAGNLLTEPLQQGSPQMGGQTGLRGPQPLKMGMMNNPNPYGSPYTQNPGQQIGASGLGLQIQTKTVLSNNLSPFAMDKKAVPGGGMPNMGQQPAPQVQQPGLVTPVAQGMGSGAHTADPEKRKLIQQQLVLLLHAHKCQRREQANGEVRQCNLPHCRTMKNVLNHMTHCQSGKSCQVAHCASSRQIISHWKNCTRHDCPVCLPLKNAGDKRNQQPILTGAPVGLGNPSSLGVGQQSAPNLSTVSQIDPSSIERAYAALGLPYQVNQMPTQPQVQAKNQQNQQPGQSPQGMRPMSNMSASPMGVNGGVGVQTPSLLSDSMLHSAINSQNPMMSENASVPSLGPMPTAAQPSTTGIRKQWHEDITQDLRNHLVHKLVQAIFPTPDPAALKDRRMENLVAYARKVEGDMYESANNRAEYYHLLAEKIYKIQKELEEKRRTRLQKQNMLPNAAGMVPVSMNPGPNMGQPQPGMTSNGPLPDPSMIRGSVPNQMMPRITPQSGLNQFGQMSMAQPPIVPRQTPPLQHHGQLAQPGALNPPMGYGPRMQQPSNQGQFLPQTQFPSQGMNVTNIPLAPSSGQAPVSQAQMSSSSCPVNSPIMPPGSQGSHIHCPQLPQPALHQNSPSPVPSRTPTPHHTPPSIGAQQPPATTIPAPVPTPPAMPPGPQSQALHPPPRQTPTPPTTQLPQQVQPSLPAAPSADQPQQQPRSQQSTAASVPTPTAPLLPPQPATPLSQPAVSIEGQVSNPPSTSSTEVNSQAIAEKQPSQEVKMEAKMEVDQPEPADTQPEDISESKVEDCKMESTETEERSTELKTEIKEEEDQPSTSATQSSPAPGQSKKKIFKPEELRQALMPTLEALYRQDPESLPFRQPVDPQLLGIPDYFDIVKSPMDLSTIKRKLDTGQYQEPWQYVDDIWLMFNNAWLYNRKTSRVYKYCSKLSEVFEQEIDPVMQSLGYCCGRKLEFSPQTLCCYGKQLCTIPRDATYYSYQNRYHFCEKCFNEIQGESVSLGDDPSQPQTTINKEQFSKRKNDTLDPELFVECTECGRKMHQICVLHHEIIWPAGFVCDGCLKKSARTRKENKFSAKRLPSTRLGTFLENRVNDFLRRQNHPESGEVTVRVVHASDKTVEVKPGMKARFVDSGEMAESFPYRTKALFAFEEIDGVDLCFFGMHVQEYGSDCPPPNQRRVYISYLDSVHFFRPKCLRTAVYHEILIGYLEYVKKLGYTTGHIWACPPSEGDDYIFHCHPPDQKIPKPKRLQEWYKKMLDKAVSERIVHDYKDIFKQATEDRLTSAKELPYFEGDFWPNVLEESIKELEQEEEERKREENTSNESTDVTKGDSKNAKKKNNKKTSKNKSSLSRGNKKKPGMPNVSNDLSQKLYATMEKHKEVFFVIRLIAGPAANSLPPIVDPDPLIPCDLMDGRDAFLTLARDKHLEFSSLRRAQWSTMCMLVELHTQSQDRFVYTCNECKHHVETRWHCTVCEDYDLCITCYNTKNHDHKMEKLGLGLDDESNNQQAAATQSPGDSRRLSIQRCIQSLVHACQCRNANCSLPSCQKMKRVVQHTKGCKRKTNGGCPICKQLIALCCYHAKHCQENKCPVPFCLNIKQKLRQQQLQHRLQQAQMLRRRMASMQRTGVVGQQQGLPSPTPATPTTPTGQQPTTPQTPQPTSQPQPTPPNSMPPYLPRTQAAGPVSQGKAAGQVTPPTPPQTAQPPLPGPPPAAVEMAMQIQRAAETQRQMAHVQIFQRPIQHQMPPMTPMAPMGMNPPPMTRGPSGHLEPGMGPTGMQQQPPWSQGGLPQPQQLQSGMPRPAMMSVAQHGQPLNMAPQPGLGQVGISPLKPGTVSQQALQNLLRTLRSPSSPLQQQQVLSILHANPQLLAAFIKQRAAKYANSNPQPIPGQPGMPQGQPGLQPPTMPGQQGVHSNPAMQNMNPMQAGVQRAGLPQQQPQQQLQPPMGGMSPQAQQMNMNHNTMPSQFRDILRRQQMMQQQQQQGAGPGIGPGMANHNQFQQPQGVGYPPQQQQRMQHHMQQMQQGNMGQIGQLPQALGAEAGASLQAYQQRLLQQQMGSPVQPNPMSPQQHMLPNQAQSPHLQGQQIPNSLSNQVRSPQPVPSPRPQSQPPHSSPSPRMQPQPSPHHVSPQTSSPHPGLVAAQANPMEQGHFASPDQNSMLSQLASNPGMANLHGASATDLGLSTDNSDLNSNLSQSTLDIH
Text: (§3) To answer this question, we initially characterized them both for their inhibition of CBP and p300 catalytic activities.

CBP [3] = target: T1, CBP; assay: CBP catalytic activity inhibition; type: biochemical; conditions: means ± S.D., n = 3
Text: as §3

WSU‐DLCL2 = assay: MTT proliferation assay, WSU‐DLCL2; type: cell-based; conditions: Homo sapiens, WSUDLCL2, WSU‐DLCL2, 72 h treatment, n = 2, read-out: IC50 (cell proliferation)
Description: as §1

SU‐DHL‐16 = assay: MTT proliferation assay, SU‐DHL‐16; type: cell-based; conditions: Homo sapiens, SU‐DHL‐16, 72 h treatment, n = 2, read-out: IC50 (cell proliferation)
Description: as §1

SU‐DHL‐2 = assay: MTT proliferation assay, SU‐DHL‐2; type: cell-based; conditions: Homo sapiens, SU‐DHL‐2, 72 h treatment, n = 2, read-out: IC50 (cell proliferation)
Description: as §1

p300 [4] = target: T2, p300; assay: Western blot of p300 levels in SU‐DHL‐10 cells; type: cell-based; set-up: WB analysis of p300 levels in the SU‐DHL‐10 cell line; endogenous in cells; host or cells: SU-DHL-10; conditions: for p300 protein levels (WB): SU‐DHL‐10, increasing concentrations
Description: as §2

[5] = system: SU‐DHL‐2, SU‐DHL‐16, TMD8, and WSU‐DLCL2; assay: MTT proliferation assay, additional DLBCL cell lines (summary); type: cell-based; conditions: 72 h, range over DLBCL cell lines and both compounds, read-out: viability IC50, range over cell lines
Description: as §1

[6] = system: histone deacetylases (HDACs); set-up: method as in PMID 26718586; conditions: cited from earlier work
neuroblastoma cell = system: neuroblastoma cell; set-up: method as in PMID 34772733; conditions: cited from earlier work
[7] = SU-DHL10, SU‐DHL‐10, 24 h treatment
[8] = SU-DHL10, SU‐DHL‐10, 72 h treatment

With `O=C1CCC(N2C(=O)c3ccccc3C2=O)C(=O)N1` (centres unmarked) [Thalidomide, thalidomide, reference compound] the IC50 (SU‐DHL‐10 cells; [7]) was greater than 20000 nM and the “effect on cell viability” value (SU‐DHL‐10 cells; SU‐DHL‐10, 24 h, up to 20 μM) was “no significant effects on cell viability”.

For `CNC(=O)Nc1ccc2c(c1)CC[C@@]21OC(=O)N(CC(=O)N(Cc2ccc(F)cc2)[C@@H](C)C(F)(F)F)C1=O` [Compound A485, A‐485], the H3K27 acetylation (H3K27 acetylation; SU‐DHL‐10, 5 and 10 μM) was “reduced H3K27 acetylation in a dose‐dependent fashion”.

With `CC1=NN(c2ccc(C(=O)NCCOCCOCCNC(=O)COc3cccc4c3C(=O)N(C3CCC(=O)NC3=O)C4=O)cc2)C(=O)/C1=C\c1ccc(-c2cc(C)c(C)cc2[N+](=O)[O-])o1` (centres unmarked) [Compound 2, (Z)‐4‐(4‐((5‐(4,5‐dimethyl‐2‐nitrophenyl)furan‐2‐yl)methylene)‐3‐methyl‐5‐oxo‐4,5‐dihydro‐1 H‐pyrazol‐1‐yl)‐N‐(2‐(2‐(2‐(2‐((2‐(2,6‐dioxopiperidin‐3‐yl)‐1,3‐dioxoisoindolin‐4‐yl)oxy)acetamido)ethoxy)ethoxy)ethyl)benzamide] the “CBP levels (WB)” value (CBP [1]; SU‐DHL‐10, 2.5 μM, 8 h) was “slightly less active”, the “CBP levels (WB)” value (CBP [1]; SU‐DHL‐10, 2.5 μM, 24 h) was “returned to the initial levels” and the “decrease of protein (CBP) levels” value (CBP [1]; SU‐DHL‐10, 10 μM, 24 h) was “roughly 70%”. The IC50 (TMD8) was 7810 ± 3040 nM, the IC50 (p300 [2]) was 600 to 900 nM and the IC50 (CBP [3]) was 600 to 900 nM. It also gave an IC50 (WSU‐DLCL2) of 5230 ± 850 nM, an IC50 (SU‐DHL‐16) of 8020 ± 2460 nM and an IC50 (SU‐DHL‐2) of 4960 ± 330 nM. The IC50 (SU‐DHL‐10 cells; [7]) was 6440 ± 810 nM, the IC50 (SU‐DHL‐10 cells; [8]) was 6340 ± 1760 nM and the “p300 levels (WB)” value (p300 [4]; SU‐DHL‐10, 2.5 μM, 8 h) was “decreased protein levels”. The “p300 levels (WB)” value (p300 [4]; SU‐DHL‐10, 2.5 μM, 24 h) was “no difference was observed”, the “p300 levels (WB)” value (p300 [4]; SU‐DHL‐10, 10 μM, 24 h) was “significantly reduced p300 levels” and the IC50 [5] was 2000 to 8000 nM.

In the case of `CC1=NN(c2ccc(C(=O)O)cc2)C(=O)/C1=C\c1ccc(-c2cc(C)c(C)cc2[N+](=O)[O-])o1` [Compound C646, C646, reference compound], the “CBP levels (WB)” value (CBP [1]; SU‐DHL‐10, 10 μM, 8 h) is reported as “no effect on CBP levels”, the H3K27 acetylation (H3K27 acetylation; SU‐DHL‐10, 5 and 10 μM) is reported as “did not reduce acetylation” and the IC50 (CBP [3]) is reported as 210 ± 10 nM. For the same compound, the “inhibition of histone deacetylases (HDACs)” value [6] was “inhibit histone deacetylases (HDACs) at low micromolar concentrations” and the IC50 (SU‐DHL‐10 cells; [7]) was 12200 ± 3020 nM.

In the case of JQAD1, the H3K27 acetylation (H3K27 acetylation; SU‐DHL‐10, 5 and 10 μM) is listed as “reduced H3K27 acetylation in a dose‐dependent fashion”, the “IC50, neuroblastoma cell viability” value (neuroblastoma cell) is listed as “nanomolar range” and the “p300 protein levels (WB)” value (p300 [4]; 24 h) is listed as “slightly higher potency”.

For `CC(C)C[C@@H](C=O)NC(=O)[C@H](CC(C)C)NC(=O)[C@H](CC(C)C)NC(=O)OCc1ccccc1` [MG132, reference compound] (Cbz-Leu-Leu-Leu-aldehyde), the IC50 (SU‐DHL‐10 cells; [7]) was 144 ± 2 nM.

For `CC1=NN(c2ccc(C(=O)NCCCOCCOCCOCCCNC(=O)COc3cccc4c3C(=O)N(C3CCC(=O)NC3=O)C4=O)cc2)C(=O)/C1=C\c1ccc(-c2cc(C)c(C)cc2[N+](=O)[O-])o1` (centres unmarked) [Compound 1, (Z)‐4‐(4‐((5‐(4,5‐dimethyl‐2‐nitrophenyl)furan‐2‐yl)methylene)‐3‐methyl‐5‐oxo‐4,5‐dihydro‐1 H‐pyrazol‐1‐yl)‐N‐(1‐((2‐(2,6‐dioxopiperidin‐3‐yl)‐1,3‐dioxoisoindolin‐4‐yl)oxy)‐2‐oxo‐7,10,13‐trioxa‐3‐azahexadecan‐16‐yl)benzamide], the “CBP levels (WB)” value (CBP [1]; SU‐DHL‐10, 2.5 μM, 8 h) was “reduced the levels of CBP; also recorded: decreased the levels of CBP”, the “CBP levels (WB)” value (CBP [1]; SU‐DHL‐10, 2.5 μM, 24 h) was “returned to the initial levels” and the “decrease of protein (CBP) levels” value (CBP [1]; SU‐DHL‐10, 10 μM, 24 h) was “roughly 70%”. The “CBP levels (WB), combination with C646” value (CBP [1]; SU‐DHL‐10, 1 2.5 μM + C646 10 μM, 8 h) was “did not affect CBP levels”, the “CBP degradation (WB), co‐incubation with MG132” value (CBP [1]; SU‐DHL‐10, 1 2.5 μM + MG132 10 μM, 8 h) was “abolishes 1‐induced CBP degradation” and the “CBP protein levels (WB)” value (CBP [1]; SU‐DHL‐10, increasing concentrations, 24 h) was “dose‐dependent reduction; also recorded: slightly better efficacy on CBP compared to the previously reported PROTAC JQAD1”. The IC50 (TMD8) was 1950 ± 69 nM, the H3K27 acetylation (H3K27 acetylation; SU‐DHL‐10, 5 μM) was “decreased H3K27 acetylation” and the IC50 (p300 [2]) was 600 to 900 nM. The IC50 (CBP [3]) was 600 to 900 nM, the IC50 (WSU‐DLCL2) was 3240 ± 280 nM and the IC50 (SU‐DHL‐16) was 2990 ± 190 nM. The IC50 (SU‐DHL‐2) was 2050 ± 68 nM, the IC50 (SU‐DHL‐10 cells; [7]) was 3440 ± 120 nM and the IC50 (SU‐DHL‐10 cells; [8]) was 2730 ± 72 nM. For the same compound, the “p300 levels (WB)” value (p300 [4]; SU‐DHL‐10, 2.5 μM, 8 h) was “decreased protein levels”, the “p300 levels (WB)” value (p300 [4]; SU‐DHL‐10, 2.5 μM, 24 h) was “no difference was observed” and the “p300 levels (WB)” value (p300 [4]; SU‐DHL‐10, 10 μM, 24 h) was “significantly reduced p300 levels”. For the same compound, the “p300 protein levels (WB)” value (p300 [4]; 24 h) was “dose‐dependent reduction” and the IC50 [5] was 2000 to 8000 nM.

Source: article PMC12174726 (Chemmedchem, 2025)
